Source: ChEMBL document CHEMBL6092221, “Discovery of a Novel Macrocyclic Noncovalent CDK7 Inhibitor for Cancer Therapy” (J Med Chem, 2024)
pIC50, pKd: −log10 of the molar value.

How the values were obtained:
[1] = biological target: Cyclin-dependent kinase 7/ cyclin H (Homo sapiens, UniProt P50613); experiment: Binding affinity to CDK7/CyclinH (unknown origin) assessed as dissociation constant by SPR assay; type: protein-complex assay
[2] = Clearance in female Balb/c nude mouse at 1 mg/kg, iv; type: ADME, organism-based; conditions: in vivo
[3] = Volume of distribution at steady state in female Balb/c nude mouse at 1 mg/kg, iv; type: ADME, organism-based; conditions: in vivo, read-out: Vdss
[4] = Half life in female Balb/c nude mouse at 5 mg/kg, po; type: ADME, organism-based; conditions: in vivo
[5] = AUC(0 to t) in female Balb/c nude mouse at 5 mg/kg, po; type: ADME, organism-based; conditions: in vivo
[6] = Half life in mouse at 1 mg/kg, iv; type: ADME, organism-based; conditions: in vivo
[7] = Half life in rat at 5 mg/kg, po; type: ADME, organism-based; conditions: in vivo
[8] = Clearance in rat at 1 mg/kg, iv; type: ADME, organism-based; conditions: in vivo
[9] = Volume of distribution at steady state in rat at 1 mg/kg, iv; type: ADME, organism-based; conditions: in vivo, read-out: Vdss
[10] = AUC(0 to t) in mouse at 5 mg/kg, po; type: ADME, organism-based; conditions: in vivo
[11] = AUC(0 to t) in dog at 2 mg/kg, po; type: ADME, organism-based, Canis lupus familiaris; conditions: in vivo
[12] = Oral bioavailability in mouse at 5 mg/kg; type: ADME, organism-based; conditions: in vivo
[13] = Oral bioavailability in dog at 2 mg/kg; type: ADME, organism-based, Canis lupus familiaris; conditions: in vivo
[14] = Drug concentration in rat small intestine at 5 mg/kg, po measured after 2 hrs; type: ADME, organism-based; conditions: read-out: Ct
[15] = Drug concentration in rat small intestine at 5 mg/kg, po measured after 8 hrs; type: ADME, organism-based; conditions: read-out: Ct
[16] = Drug concentration in rat plasma at 5 mg/kg, po measured after 2 hrs; type: ADME, organism-based
[17] = Half life in Sprague-Dawley rat at 30 mg/kg, po; type: ADME, organism-based; conditions: in vivo
[18] = Cmax in Sprague-Dawley rat at 30 mg/kg, po; type: ADME, organism-based; conditions: in vivo
[19] = AUC(0 to 24 hrs) in Sprague-Dawley rat at 30 mg/kg, po; type: ADME, organism-based; conditions: in vivo
[20] = biological target: Cyclin-Y/Cyclin-dependent kinase 16 (Homo sapiens, UniProt Q00536); experiment: Inhibition of CDK16/CyclinY (unknown origin); type: protein-complex assay
Chain of Cyclin-Y/Cyclin-dependent kinase 16 (Q00536 whole entry): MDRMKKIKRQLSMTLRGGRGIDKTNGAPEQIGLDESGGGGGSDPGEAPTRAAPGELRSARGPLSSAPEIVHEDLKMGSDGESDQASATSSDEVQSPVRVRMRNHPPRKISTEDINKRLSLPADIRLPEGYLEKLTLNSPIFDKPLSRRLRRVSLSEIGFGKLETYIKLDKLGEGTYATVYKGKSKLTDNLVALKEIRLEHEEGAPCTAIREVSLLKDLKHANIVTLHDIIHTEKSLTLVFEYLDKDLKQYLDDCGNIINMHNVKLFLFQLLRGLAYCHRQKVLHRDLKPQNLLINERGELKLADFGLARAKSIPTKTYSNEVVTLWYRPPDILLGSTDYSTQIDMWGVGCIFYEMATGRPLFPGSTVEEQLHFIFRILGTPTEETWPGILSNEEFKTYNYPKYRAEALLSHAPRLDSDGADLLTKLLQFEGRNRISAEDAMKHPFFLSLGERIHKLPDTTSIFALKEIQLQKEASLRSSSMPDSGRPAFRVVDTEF
Chain of Cyclin-Y/Cyclin-dependent kinase 16 (Q8ND76 whole entry, further chain): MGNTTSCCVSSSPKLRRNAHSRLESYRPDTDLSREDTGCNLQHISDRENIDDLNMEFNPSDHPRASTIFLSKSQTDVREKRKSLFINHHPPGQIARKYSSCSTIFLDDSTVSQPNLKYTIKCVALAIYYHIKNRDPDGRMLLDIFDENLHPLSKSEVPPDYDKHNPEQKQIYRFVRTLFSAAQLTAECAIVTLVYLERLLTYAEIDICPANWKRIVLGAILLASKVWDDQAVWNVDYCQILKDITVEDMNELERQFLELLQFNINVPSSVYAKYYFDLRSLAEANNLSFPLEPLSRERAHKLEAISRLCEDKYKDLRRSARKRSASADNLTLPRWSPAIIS

[21] = biological target: Mitogen-activated protein kinase 15 (Homo sapiens, UniProt Q8TD08); experiment: Inhibition of Erk8 (unknown origin)
[22] = biological target: Cyclin-dependent kinase 14/Cyclin-Y (Homo sapiens, UniProt O94921); experiment: Inhibition of CDK14/Cyclin Y (unknown origin); type: protein-complex assay
Chain of Cyclin-dependent kinase 14/Cyclin-Y (O94921 whole entry): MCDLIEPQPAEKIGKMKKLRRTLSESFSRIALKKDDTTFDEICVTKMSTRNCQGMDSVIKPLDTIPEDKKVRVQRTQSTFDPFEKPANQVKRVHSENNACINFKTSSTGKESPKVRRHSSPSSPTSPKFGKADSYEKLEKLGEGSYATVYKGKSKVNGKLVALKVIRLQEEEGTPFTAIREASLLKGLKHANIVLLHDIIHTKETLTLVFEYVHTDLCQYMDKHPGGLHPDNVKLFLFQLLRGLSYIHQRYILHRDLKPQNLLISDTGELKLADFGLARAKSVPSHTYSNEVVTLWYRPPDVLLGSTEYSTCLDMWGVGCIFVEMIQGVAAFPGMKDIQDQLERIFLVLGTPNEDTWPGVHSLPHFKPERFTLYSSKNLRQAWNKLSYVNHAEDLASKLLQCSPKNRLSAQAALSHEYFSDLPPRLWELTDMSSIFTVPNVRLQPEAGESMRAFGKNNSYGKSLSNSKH
Chain of Cyclin-dependent kinase 14/Cyclin-Y (Q8ND76 whole entry, further chain): as the sequence (Q8ND76 whole entry, further chain) above

[23] = biological target: Cyclin-dependent kinase 4/cyclin D1 (Homo sapiens, UniProt P11802); experiment: Inhibition of CDK4/CyclinD1 (unknown origin); type: protein-complex assay
Chain of Cyclin-dependent kinase 4/cyclin D1 (P11802 whole entry): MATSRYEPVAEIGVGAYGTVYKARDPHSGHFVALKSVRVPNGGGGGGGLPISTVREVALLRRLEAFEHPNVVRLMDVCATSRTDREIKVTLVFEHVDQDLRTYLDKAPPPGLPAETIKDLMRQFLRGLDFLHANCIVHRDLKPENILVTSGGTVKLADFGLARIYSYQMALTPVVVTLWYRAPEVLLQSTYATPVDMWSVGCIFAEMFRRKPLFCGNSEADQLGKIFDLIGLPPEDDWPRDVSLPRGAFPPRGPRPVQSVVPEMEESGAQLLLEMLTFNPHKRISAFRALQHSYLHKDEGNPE
Chain of Cyclin-dependent kinase 4/cyclin D1 (P24385 whole entry, further chain): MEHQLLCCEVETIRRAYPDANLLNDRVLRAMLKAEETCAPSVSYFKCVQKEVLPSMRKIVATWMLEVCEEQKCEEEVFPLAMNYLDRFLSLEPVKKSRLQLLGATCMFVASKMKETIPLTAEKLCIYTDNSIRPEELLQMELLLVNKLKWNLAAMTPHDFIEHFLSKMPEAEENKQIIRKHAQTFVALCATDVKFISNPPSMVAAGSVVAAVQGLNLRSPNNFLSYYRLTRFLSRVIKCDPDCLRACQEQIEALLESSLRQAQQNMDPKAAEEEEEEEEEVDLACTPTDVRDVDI

CDK18/Cyclin Y [24] = biological target: T1, CDK18/Cyclin Y (Homo sapiens, UniProt Q07002+Q8ND76); experiment: Inhibition of CDK18/Cyclin Y (unknown origin); type: protein-complex assay
T1 sequence (Q07002 whole entry): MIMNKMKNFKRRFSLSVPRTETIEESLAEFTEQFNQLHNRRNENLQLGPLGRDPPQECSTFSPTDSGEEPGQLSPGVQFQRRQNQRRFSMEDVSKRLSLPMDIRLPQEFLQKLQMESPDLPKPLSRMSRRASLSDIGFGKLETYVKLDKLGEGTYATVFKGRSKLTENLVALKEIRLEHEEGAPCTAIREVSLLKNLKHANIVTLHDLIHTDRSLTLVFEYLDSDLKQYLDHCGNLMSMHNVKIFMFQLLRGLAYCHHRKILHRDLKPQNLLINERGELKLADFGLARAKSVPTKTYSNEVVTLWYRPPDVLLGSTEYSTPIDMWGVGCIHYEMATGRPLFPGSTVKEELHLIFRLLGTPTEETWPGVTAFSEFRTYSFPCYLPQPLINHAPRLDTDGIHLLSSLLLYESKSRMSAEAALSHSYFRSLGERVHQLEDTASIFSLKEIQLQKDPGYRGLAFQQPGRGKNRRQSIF
T1 sequence (Q8ND76 whole entry): as the sequence (Q8ND76 whole entry, further chain) above

[25] = biological target: Homeodomain-interacting protein kinase 4 (Homo sapiens, UniProt Q8NE63); experiment: Inhibition of HIPK4 (unknown origin)
[26] = biological target: Serine/threonine-protein kinase D1 (Homo sapiens, UniProt Q15139); experiment: Inhibition of PRKD1 (unknown origin)
Chain of Serine/threonine-protein kinase D1 (Q15139 whole entry): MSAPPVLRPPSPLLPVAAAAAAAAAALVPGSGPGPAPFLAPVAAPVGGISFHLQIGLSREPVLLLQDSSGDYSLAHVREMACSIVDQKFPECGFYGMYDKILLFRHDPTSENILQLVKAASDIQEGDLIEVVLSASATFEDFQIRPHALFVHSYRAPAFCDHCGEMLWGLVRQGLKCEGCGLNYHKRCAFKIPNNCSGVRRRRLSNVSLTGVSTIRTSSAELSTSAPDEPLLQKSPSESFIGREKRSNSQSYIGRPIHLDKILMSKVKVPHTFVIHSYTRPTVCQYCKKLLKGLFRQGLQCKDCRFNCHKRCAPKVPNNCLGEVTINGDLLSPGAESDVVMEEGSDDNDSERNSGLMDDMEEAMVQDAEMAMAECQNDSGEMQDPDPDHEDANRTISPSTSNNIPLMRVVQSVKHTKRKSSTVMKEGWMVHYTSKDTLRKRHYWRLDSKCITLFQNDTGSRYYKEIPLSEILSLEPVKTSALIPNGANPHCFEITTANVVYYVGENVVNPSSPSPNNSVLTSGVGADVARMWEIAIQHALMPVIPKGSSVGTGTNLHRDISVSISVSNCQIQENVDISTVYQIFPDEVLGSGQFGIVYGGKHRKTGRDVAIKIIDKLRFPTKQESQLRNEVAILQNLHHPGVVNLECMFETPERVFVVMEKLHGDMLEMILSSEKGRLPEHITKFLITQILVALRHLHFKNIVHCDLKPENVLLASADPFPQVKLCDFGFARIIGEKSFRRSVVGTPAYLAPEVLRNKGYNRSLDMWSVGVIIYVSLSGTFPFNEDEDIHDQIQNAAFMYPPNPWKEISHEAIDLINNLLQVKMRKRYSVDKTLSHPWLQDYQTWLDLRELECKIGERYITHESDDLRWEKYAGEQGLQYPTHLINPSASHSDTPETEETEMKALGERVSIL

[27] = biological target: Serine/threonine-protein kinase TAO1 (Homo sapiens, UniProt Q7L7X3); experiment: Inhibition of TAOK1 (unknown origin)
Cytochrome P450 2C19 = Cytochrome P450 2C19 (Homo sapiens, UniProt P33261); experiment: Inhibition of CYP2C19 (unknown origin); type: ADME
Cytochrome P450 3A4 = Cytochrome P450 3A4 (Homo sapiens, UniProt P08684); experiment: Inhibition of CYP3A4 (unknown origin); type: ADME
Chain of Cytochrome P450 3A4 (P08684 whole entry): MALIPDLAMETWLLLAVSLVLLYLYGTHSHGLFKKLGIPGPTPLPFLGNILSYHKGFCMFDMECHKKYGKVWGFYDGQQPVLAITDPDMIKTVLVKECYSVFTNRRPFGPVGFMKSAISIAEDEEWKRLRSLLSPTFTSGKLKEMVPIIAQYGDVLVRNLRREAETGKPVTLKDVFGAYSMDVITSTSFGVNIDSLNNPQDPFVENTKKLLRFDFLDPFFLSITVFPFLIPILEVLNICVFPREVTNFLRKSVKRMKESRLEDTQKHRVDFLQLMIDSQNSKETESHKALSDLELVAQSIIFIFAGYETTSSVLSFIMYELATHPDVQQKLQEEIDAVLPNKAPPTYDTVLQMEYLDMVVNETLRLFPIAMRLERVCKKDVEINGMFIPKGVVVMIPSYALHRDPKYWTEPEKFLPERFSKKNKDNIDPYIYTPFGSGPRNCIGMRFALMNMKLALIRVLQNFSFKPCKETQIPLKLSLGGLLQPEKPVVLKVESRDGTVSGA

OVCAR-3 [28] = experiment: Antitumor activity against human OVCAR-3 cells xenografted in female Balb/c nude mouse assessed as tumor growth inhibition at 2 mg/kg, po administered once daily and measured on day 22; type: functional; conditions: OVCAR-3, 528 h, time 22 day, read-out: TGI
OVCAR-3 [29] = experiment: Antitumor activity against human OVCAR-3 cells xenografted in female Balb/c nude mouse assessed as tumor growth inhibition at 20 mg/kg, po administered once daily and measured on day 22; type: functional; conditions: OVCAR-3, 528 h, time 22 day, read-out: TGI
[30] = Half life in human OVCAR-3 cells xenografted in female Balb/c nude mouse plasma at 5 mg/kg, po administered once daily; type: ADME, organism-based
[31] = Half life in human OVCAR-3 cells xenografted in female Balb/c nude mouse plasma at 20 mg/kg, po administered once daily; type: ADME, organism-based
[32] = Cmax in human OVCAR-3 cells xenografted in female Balb/c nude mouse plasma at 20 mg/kg, po administered once daily; type: ADME, organism-based
[33] = AUC (0 to t) in human OVCAR-3 cells xenografted in female Balb/c nude mouse plasma at 5 mg/kg, po administered once daily; type: ADME, organism-based
[34] = AUC (0 to t) in human OVCAR-3 cells xenografted in female Balb/c nude mouse plasma at 20 mg/kg, po administered once daily; type: ADME, organism-based
HCC70 = experiment: Antitumor activity against human HCC70 cells xenografted in female nu/nu mouse assessed as tumor growth inhibition at 1 mg/kg, po administered once daily and measured for 4 weeks; type: functional; conditions: HCC70, 672 h, read-out: TGI
[35] = Half life in human HCC70 cells xenografted in female nu/nu mouse plasma at 3 mg/kg, po administered once daily; type: ADME, organism-based
[36] = Half life in human HCC70 cells xenografted in female nu/nu mouse plasma at 10 mg/kg, po administered once daily; type: ADME, organism-based
[37] = Cmax in human HCC70 cells xenografted in female nu/nu mouse plasma at 1 mg/kg, po administered once daily; type: ADME, organism-based
[38] = AUC(0 to t) in human HCC70 cells xenografted in female nu/nu mouse plasma at 3 mg/kg, po administered once daily; type: ADME, organism-based
[39] = AUC(0 to t) in human HCC70 cells xenografted in female nu/nu mouse plasma at 10 mg/kg, po administered once daily; type: ADME, organism-based
[40] = biological target: Mitogen-activated protein kinase 15 (Homo sapiens) (UniProt Q8TD08); experiment: Inhibition of Erk8 (unknown origin) at 200 nM relative to control; values are per cent of control
[41] = biological target: Mitogen-activated protein kinase 7 (Homo sapiens, UniProt Q13164); experiment: Inhibition of Erk5 (unknown origin) at 200 nM relative to control; values are per cent of control
Chain of Mitogen-activated protein kinase 7 (Q13164 2-816 limits assumed): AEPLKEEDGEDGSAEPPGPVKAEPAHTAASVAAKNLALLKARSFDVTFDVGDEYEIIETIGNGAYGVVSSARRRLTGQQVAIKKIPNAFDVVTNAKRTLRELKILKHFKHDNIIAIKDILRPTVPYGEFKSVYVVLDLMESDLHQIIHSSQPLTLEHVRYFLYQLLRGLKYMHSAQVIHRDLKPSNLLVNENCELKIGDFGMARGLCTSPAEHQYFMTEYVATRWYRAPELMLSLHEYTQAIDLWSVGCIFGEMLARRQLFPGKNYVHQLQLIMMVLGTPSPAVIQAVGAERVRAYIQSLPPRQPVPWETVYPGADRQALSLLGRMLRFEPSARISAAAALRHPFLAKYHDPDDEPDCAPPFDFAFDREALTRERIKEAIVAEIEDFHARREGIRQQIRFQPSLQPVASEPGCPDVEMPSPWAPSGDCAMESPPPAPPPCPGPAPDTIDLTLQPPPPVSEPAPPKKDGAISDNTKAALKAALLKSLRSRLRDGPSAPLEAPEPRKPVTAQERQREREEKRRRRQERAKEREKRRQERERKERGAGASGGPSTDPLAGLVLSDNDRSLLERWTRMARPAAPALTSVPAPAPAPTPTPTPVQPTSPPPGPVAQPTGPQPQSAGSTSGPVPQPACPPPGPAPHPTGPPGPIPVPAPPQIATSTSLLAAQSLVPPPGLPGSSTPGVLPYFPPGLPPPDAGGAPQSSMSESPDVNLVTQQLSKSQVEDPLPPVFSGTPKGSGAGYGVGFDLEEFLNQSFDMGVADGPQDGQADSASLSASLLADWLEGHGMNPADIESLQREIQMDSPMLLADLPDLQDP

[42] = biological target: Serine/threonine-protein kinase D1 (Homo sapiens) (UniProt Q15139); experiment: Inhibition of PRKD1 (unknown origin) at 200 nM relative to control; values are per cent of control
Chain of Serine/threonine-protein kinase D1 (Homo sapiens) (Q15139 whole entry): as the sequence (Q15139 whole entry) above

[43] = biological target: Serine/threonine-protein kinase TAO1 (Homo sapiens) (UniProt Q7L7X3); experiment: Inhibition of TAOK1 (unknown origin) at 200 nM relative to control; values are per cent of control
CDK18/Cyclin Y [44] = biological target: T1, CDK18/Cyclin Y; experiment: Inhibition of CDK18/Cyclin Y (unknown origin) at 200 nM relative to control; values are per cent of control

pKd [1]: 9.74
clearance [2]: 52.6 mL/min/kg
Vd [3]: 1.7 L/kg
half-life [4]: 4.3 h
AUC(0-t) [5]: 938 ng·h/mL
half-life [6]: 2 h
half-life [7]: 1.4 h
clearance [8]: 39.9 mL/min/kg
Vd [9]: 2.6 L/kg
AUC(0-t) [10]: 938 ng·h/mL
AUC(0-t) [11]: 44600 ng·h/mL
bioavailability [12]: 78.7%
bioavailability [13]: 147%
concentration at 2 h [14]: 3230 ng/g
concentration at 8 h [15]: 67 ng/g
concentration at 2 h [16]: 68.8 ng/mL
half-life [17]: 7.8 h
Cmax [18]: 1270 ng/mL
AUC(0-t) [19]: 3960 ng·h/mL
pIC50 [20]: 8.55
pIC50 [22]: 7.79
pIC50 [23]: 6.84
pIC50 (CDK18/Cyclin Y [24]): 8.38
pIC50 [25]: 7.26
pIC50 [26]: 7.63
pIC50 [27]: 6.26
pIC50 (Cytochrome P450 2C19): 4.51
pIC50 (Cytochrome P450 3A4): 5.28
half-life [30]: 2.8 h
half-life [31]: 3.4 h
Cmax [32]: 1690 ng/mL
AUC(0-t) [33]: 694 ng·h/mL
AUC(0-t) [34]: 3940 ng·h/mL
residual activity [41]: 5.6%
residual activity [42]: 19%
residual activity [43]: 24%
residual activity (CDK18/Cyclin Y [44]): 2.9%
SMILES: CN1CC(F)(F)CCN(C)[C@H]2CC[C@@H](C2)Nc2ncc(C(F)(F)F)c(n2)-c2c[nH]c3c(P(C)(C)=O)c(ccc23)C1=O
pIC50 [21]: 8.10
inhibition in vivo at 2 mg/kg (OVCAR-3 [28]): 110%
inhibition in vivo at 20 mg/kg (OVCAR-3 [29]): 111%
inhibition in vivo at 1 mg/kg (HCC70): 35.5%
half-life [35]: 1.6 h
half-life [36]: 1.7 h
Cmax [37]: 75 ng/mL
AUC(0-t) [38]: 203 ng·h/mL
AUC(0-t) [39]: 812 ng·h/mL
residual activity [40]: 0.85%
